Earlier results, collected in article PMC9851200, “Multiparameter phenotypic screening for endogenous TFEB and TFE3 translocation identifies novel chemical series modulating lysosome function” (Autophagy, 2022).

How the values were obtained:
Parameters in all cases: method as in original PKIS2 published data
[1] = biological target: T1, kinases (KINOMEscan panel) (Homo sapiens, UniProt Q13873); conditions: kinase BMPR2; Published KINOMEscan; ref original PKIS2 published data; cited from earlier work
T1 sequence (Q13873 27-1038): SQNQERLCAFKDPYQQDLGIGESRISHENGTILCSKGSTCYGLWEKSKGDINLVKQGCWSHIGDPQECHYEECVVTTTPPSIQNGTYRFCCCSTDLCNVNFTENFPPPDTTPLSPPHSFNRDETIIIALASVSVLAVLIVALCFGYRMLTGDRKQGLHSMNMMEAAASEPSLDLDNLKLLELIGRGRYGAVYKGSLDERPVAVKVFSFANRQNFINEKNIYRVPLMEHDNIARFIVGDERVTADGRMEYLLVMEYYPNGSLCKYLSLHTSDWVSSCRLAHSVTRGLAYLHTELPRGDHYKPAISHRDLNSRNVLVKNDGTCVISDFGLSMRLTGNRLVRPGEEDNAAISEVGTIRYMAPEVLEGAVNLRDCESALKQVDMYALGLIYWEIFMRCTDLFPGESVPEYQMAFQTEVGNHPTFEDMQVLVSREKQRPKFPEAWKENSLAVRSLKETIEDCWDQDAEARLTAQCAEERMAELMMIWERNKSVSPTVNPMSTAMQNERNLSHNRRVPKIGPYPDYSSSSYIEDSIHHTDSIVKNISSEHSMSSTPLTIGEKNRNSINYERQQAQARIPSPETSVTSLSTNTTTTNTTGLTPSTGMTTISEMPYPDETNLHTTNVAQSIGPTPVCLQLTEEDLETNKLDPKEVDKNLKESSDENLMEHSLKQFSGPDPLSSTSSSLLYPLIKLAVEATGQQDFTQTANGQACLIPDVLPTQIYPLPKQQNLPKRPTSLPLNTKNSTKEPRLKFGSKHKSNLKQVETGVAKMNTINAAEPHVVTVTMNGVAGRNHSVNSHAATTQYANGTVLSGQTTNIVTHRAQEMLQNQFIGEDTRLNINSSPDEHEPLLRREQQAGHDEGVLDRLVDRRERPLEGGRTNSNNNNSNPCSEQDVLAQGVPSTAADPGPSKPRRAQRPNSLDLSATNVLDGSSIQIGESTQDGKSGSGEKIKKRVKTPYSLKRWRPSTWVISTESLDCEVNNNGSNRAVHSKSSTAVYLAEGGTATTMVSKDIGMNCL

[2] = biological target: kinases (KINOMEscan panel) (Homo sapiens, UniProt P53667); conditions: kinase LIMK1; Published KINOMEscan; ref original PKIS2 published data; cited from earlier work
[3] = biological target: kinases (KINOMEscan panel) (Homo sapiens, UniProt P31751); conditions: Published KINOMEscan; ref original PKIS2 published data; cited from earlier work
[4] = biological target: kinases (KINOMEscan panel) (Homo sapiens, UniProt O60674); conditions: JAK2(JH1domain-catalytic); Published KINOMEscan; ref original PKIS2 published data; cited from earlier work
[5] = biological target: kinases (KINOMEscan panel) (Homo sapiens, UniProt P11309); conditions: Published KINOMEscan; ref original PKIS2 published data; cited from earlier work
[6] = biological target: T2, kinases (KINOMEscan panel) (Homo sapiens, UniProt Q8WTQ7); conditions: kinase GRK7; Published KINOMEscan; ref original PKIS2 published data; cited from earlier work
T2 sequence (Q8WTQ7 1-553): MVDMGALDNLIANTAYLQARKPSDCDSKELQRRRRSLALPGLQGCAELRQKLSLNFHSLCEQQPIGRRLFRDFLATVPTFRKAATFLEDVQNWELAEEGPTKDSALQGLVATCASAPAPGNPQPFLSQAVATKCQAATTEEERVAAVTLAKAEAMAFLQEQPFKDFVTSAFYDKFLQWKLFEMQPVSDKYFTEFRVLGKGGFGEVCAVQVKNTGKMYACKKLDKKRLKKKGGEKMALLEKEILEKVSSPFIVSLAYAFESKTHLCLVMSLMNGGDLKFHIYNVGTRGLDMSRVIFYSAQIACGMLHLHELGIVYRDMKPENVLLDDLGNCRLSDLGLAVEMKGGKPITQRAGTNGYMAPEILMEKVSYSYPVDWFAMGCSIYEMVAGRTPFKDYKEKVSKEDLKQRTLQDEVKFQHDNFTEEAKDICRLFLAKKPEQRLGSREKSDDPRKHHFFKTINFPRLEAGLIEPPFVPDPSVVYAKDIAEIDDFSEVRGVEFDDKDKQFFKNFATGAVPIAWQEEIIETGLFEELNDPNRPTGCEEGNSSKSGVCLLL

[7] = biological target: kinases (KINOMEscan panel) (Homo sapiens, UniProt Q52WX2); conditions: SBK1; Published KINOMEscan; ref original PKIS2 published data; cited from earlier work
[8] = biological target: T3, kinases (KINOMEscan panel) (Homo sapiens, UniProt Q9UPZ9); conditions: CILK1; Published KINOMEscan; ref original PKIS2 published data; cited from earlier work
T3 sequence (Q9UPZ9 1-632): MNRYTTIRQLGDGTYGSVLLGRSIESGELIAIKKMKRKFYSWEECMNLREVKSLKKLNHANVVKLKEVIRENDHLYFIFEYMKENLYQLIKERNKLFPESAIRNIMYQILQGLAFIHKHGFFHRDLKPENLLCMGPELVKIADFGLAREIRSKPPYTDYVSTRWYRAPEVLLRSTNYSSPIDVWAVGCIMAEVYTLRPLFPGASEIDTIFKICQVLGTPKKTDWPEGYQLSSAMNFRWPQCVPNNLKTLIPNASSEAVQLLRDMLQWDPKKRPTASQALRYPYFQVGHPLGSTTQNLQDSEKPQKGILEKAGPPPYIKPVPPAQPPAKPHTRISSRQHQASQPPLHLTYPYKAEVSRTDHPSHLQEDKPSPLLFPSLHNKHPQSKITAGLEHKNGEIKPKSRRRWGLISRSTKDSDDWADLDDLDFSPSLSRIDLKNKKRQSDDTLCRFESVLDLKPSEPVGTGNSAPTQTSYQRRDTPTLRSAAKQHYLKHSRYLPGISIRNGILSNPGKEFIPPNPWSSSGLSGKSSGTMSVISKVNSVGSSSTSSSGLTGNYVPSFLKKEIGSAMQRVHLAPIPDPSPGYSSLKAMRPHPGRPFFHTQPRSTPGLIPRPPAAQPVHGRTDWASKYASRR

kinases (KINOMEscan panel) (Homo sapiens, UniProt Q52WX2), sequence (Q52WX2 whole entry): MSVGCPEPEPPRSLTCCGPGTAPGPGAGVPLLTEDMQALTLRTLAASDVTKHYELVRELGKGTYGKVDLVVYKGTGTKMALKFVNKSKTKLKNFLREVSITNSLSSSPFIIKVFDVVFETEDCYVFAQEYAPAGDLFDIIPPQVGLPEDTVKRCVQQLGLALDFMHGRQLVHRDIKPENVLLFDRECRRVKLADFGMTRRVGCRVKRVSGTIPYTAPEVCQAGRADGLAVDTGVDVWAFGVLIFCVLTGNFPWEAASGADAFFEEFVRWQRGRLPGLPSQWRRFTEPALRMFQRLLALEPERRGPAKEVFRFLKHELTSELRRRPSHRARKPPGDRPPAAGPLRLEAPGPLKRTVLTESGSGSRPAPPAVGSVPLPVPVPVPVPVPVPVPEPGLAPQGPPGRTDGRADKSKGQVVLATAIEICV
kinases (KINOMEscan panel) (Homo sapiens, UniProt P11309), sequence (P11309 whole entry): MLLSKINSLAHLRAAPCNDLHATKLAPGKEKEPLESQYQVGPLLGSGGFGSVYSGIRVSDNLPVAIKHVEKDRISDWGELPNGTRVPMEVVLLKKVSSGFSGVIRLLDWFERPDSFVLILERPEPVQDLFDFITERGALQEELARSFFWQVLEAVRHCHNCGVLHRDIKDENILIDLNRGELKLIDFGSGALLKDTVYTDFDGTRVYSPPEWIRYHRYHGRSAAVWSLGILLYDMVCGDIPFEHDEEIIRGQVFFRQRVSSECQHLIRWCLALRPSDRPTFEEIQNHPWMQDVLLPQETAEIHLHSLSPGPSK
kinases (KINOMEscan panel) (Homo sapiens, UniProt O60674), sequence (O60674 whole entry): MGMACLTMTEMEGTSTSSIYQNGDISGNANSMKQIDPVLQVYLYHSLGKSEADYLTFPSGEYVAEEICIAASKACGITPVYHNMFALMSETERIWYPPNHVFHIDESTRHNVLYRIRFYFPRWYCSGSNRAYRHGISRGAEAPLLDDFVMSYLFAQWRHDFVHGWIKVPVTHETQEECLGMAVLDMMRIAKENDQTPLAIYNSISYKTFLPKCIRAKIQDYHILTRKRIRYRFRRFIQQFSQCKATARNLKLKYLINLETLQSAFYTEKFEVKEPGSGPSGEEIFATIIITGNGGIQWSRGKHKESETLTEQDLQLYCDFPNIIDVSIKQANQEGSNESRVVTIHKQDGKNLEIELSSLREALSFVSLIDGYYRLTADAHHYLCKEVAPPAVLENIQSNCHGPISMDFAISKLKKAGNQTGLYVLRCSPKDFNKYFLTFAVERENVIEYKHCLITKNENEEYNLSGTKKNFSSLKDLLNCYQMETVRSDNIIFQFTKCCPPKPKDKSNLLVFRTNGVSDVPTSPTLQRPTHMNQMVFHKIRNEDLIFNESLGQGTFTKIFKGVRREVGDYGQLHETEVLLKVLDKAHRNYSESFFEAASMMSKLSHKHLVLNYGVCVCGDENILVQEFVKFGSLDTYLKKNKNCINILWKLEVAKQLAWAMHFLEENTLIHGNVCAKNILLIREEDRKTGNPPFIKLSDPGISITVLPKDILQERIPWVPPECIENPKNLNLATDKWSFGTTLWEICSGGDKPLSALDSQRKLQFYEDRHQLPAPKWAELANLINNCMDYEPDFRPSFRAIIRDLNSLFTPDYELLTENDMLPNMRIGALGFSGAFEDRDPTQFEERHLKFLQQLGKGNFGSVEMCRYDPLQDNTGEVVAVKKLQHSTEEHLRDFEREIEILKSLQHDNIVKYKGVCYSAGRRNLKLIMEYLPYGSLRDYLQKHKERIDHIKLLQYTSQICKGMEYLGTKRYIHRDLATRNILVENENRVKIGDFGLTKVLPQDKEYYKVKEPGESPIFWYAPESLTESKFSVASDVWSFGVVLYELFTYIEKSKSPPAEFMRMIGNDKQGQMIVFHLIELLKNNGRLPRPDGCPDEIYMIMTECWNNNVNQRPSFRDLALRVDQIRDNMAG
kinases (KINOMEscan panel) (Homo sapiens, UniProt P31751), sequence (P31751 whole entry): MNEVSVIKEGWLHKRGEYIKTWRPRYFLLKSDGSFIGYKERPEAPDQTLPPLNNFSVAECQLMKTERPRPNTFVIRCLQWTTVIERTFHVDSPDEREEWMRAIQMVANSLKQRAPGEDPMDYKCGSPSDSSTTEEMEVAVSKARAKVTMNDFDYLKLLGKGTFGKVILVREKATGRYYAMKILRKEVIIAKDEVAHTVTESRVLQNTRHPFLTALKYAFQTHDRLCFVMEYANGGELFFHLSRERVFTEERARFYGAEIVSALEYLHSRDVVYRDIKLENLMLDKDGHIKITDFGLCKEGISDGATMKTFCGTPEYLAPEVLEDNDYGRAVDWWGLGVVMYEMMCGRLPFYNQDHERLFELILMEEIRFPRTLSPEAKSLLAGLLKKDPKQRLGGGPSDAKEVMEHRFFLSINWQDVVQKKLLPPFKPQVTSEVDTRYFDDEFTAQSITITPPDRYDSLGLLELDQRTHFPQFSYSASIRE
kinases (KINOMEscan panel) (Homo sapiens, UniProt P53667), sequence (P53667 whole entry): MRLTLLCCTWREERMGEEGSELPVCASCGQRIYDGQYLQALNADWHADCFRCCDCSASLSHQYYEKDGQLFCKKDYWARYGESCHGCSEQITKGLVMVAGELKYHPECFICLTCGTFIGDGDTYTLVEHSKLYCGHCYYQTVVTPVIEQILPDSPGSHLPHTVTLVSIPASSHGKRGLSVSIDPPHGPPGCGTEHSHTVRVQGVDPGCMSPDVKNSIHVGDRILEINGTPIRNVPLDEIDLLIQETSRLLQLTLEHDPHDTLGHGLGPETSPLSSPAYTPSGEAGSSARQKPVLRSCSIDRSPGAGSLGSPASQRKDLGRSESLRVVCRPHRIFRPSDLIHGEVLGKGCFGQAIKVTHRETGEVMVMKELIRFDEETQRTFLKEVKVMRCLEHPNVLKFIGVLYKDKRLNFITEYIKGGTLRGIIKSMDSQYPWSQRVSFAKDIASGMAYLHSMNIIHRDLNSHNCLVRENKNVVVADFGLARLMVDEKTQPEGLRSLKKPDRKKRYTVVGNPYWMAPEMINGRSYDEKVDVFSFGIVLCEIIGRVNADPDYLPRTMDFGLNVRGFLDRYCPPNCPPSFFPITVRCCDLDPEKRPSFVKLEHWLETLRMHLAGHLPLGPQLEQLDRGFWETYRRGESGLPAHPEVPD

SMILES: Cc1cccc(-c2nc(Nc3ccncc3)c3ccccc3n2)n1 [NK215]
- KINOMEscan BMPR2 [1]: 0
- KINOMEscan LIMK1 [2]: 12
- KINOMEscan AKT2 [3]: 0
- KINOMEscan JAK2(JH1domain-catalytic) [4]: 0
- KINOMEscan PIM1 [5]: 0
- KINOMEscan GRK7 [6]: 0
- KINOMEscan SBK1 [7]: 0
- KINOMEscan CILK1 [8]: 0
